Results taken from PubChem BioAssay AID330 (DTP/NCI, 2004).
Several values for one entry are separate records, joined by “and”; a condition that tells them apart may be missing. Identical values can stand only once. Toxic doses and inconclusive results are not listed.

System: P388 leukemia ip, CD2F1 mice, survival T/C
Test: NCI In Vivo Anticancer Drug Screen. Data for tumor model P388 Leukemia (intraperitoneal) in CD2F1 (CDF1) mice
Conditions: endpoint: median survival time, higher = longer survival
Method in brief: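 Mice carrying the transplanted tumor received test compound or vehicle. Survival was recorded in each group, and the value is the treated-group measurement divided by that of the vehicle-treated control group.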

[1] = dose: 50.0 mg/kg/injection, schedule: Q01DX009 (ip), vehicle: Klucel (hydroxypropylcellulose) (HPC)
[2] = dose: 100.0 mg/kg/injection, schedule: Q01DX009 (ip), vehicle: Klucel (hydroxypropylcellulose) (HPC)
[3] = dose: 200.0 mg/kg/injection, schedule: Q01DX009 (ip), vehicle: Klucel (hydroxypropylcellulose) (HPC)
[4] = dose: 0.78 mg/kg/injection, schedule: Q01DX009 (ip), vehicle: water
[5] = dose: 1.56 mg/kg/injection, schedule: Q01DX009 (ip), vehicle: water
[6] = dose: 25.0 mg/kg/injection, schedule: Q01DX009 (ip), vehicle: saline with Tween-80
[7] = dose: 50.0 mg/kg/injection, schedule: Q01DX009 (ip), vehicle: saline with Tween-80
[8] = dose: 100.0 mg/kg/injection, schedule: Q01DX009 (ip), vehicle: saline with Tween-80
[9] = dose: 200.0 mg/kg/injection, schedule: Q01DX009 (ip), vehicle: saline with Tween-80

Structure (SMILES): NC(=O)CCSC(N)=O
- T/C (dose: 50.0 mg/kg/injection, schedule: Q01DX005 (ip), vehicle: saline with Tween-80): 102 % of control
- T/C (dose: 100.0 mg/kg/injection, schedule: Q01DX005 (ip), vehicle: saline with Tween-80): 100 % of control
- T/C (dose: 200.0 mg/kg/injection, schedule: Q01DX005 (ip), vehicle: saline with Tween-80): 102 % of control

Structure (SMILES): C=CCNc1nc2c(s1)c1c(O)c3c(O)c(C)c4c(c32)C(=O)C(C)(O/C=C\C(OC)C(C)C(OC(C)=O)C(C)C(O)C(C)C(O)C(C)/C=C/C=C(/C)C(=O)N1)O4 (stereo not drawn)
- T/C (dose: 25.0 mg/kg/injection, schedule: Q01DX009 (ip), vehicle: Klucel (hydroxypropylcellulose) (HPC)): 98 % of control
- T/C [1]: 100 % of control
- T/C [2]: 100 % of control
- T/C [3]: 94 % of control

Structure (SMILES): C[n+]1c(-c2cccc(OCCCCCCCCCCOc3cccc(-c4c5cc(N)ccc5c5ccc(N)cc5[n+]4C)c3)c2)c2cc(N)ccc2c2ccc(N)cc21
- T/C (dose: 0.39 mg/kg/injection, schedule: Q01DX005 (ip), vehicle: water): 168 % of control
- T/C (dose: 0.78 mg/kg/injection, schedule: Q01DX005 (ip), vehicle: water): 153 % of control and 168 % of control
- T/C [4]: 153 % of control
- T/C (dose: 1.56 mg/kg/injection, schedule: Q01DX005 (ip), vehicle: water): 174 % of control
- T/C [5]: 170 % of control
- T/C (dose: 3.0 mg/kg/injection, schedule: Q01DX009 (ip), vehicle: water): 169 % of control
- T/C (dose: 3.12 mg/kg/injection, schedule: Q01DX009 (ip), vehicle: water): 153 % of control
- T/C (dose: 6.25 mg/kg/injection, schedule: Q01DX009 (ip), vehicle: water): 122 % of control

Structure (SMILES): CCCCCCOc1ccc(C(=O)Oc2ccc(OC(=O)c3ccc(N)cc3)cc2)cc1
- T/C [1]: 102 % of control
- T/C [2]: 100 % of control
- T/C [3]: 100 % of control

Structure (SMILES): COC(=O)C1(C)C(=O)NC(=O)CC1C (stereo not drawn)
- T/C (dose: 50.0 mg/kg/injection, schedule: Q01DX005 (ip), vehicle: Klucel (hydroxypropylcellulose) (HPC)): 105 % of control
- T/C (dose: 100.0 mg/kg/injection, schedule: Q01DX005 (ip), vehicle: Klucel (hydroxypropylcellulose) (HPC)): 101 % of control
- T/C (dose: 200.0 mg/kg/injection, schedule: Q01DX005 (ip), vehicle: Klucel (hydroxypropylcellulose) (HPC)): 87 % of control

Structure (SMILES): CC1(C)COC(=O)C(C)(C2(C)NC(C)(C)COC2=O)N1 (stereo not drawn)
- T/C [6]: 99 % of control
- T/C [7]: 102 % of control
- T/C [8]: 101 % of control
- T/C (dose: 200.0 mg/kg/injection, schedule: Q01DX001 (ip), vehicle: saline with Tween-80): 95 % of control
- T/C [9]: 114 % of control
- T/C (dose: 400.0 mg/kg/injection, schedule: Q01DX001 (ip), vehicle: saline with Tween-80): 97 % of control
- T/C (dose: 400.0 mg/kg/injection, schedule: Q01DX009 (ip), vehicle: saline with Tween-80): 106 % of control
- T/C (dose: 800.0 mg/kg/injection, schedule: Q01DX001 (ip), vehicle: saline with Tween-80): 101 % of control

Structure (SMILES): O=C(C(Br)C(Br)c1ccccc1)C(Br)C(Br)c1ccccc1 (stereo not drawn)
- T/C (dose: 100.0 mg/kg/injection, schedule: Q04DX003 (ip), vehicle: saline sonified): 104 % of control
- T/C (dose: 200.0 mg/kg/injection, schedule: Q04DX003 (ip), vehicle: saline sonified): 100 % of control
- T/C (dose: 400.0 mg/kg/injection, schedule: Q04DX003 (ip), vehicle: saline sonified): 95 % of control

Structure (SMILES): Cc1nc(N)nc(N)c1N1CCN(c2ccc(C(=O)NC(C(=O)O)C(=O)O)cc2)CC1
- T/C (dose: 3.75 mg/kg/injection, schedule: Q01DX005 (ip), vehicle: Klucel + Tween-80): 184 % of control
- T/C (dose: 7.5 mg/kg/injection, schedule: Q01DX005 (ip), vehicle: Klucel + Tween-80): 215 % of control
- T/C (dose: 15.0 mg/kg/injection, schedule: Q01DX005 (ip), vehicle: Klucel + Tween-80): 87 % of control

Structure (SMILES): COc1cccc2c1C(=O)c1c(O)c3c(c(O)c1C2=O)C[C@@](O)(/C(C)=N/NC(=O)c1ccccc1)C[C@@H]3OC1CC(N(C)C)C(O)C(C)O1 (stereo partly drawn)
- T/C [4]: 165 % of control
- T/C [5]: 165 % of control
- T/C (dose: 3.13 mg/kg/injection, schedule: Q01DX009 (ip), vehicle: water): 183 % of control and 192 % of control
- T/C (dose: 12.5 mg/kg/injection, schedule: Q01DX009 (ip), vehicle: water): 103 % of control

Structure (SMILES): CC12CCC3C(CCC4(O)C=CCCC34C=O)C1(O)CC(O)C2c1ccc(=O)oc1 (stereo not drawn)
- T/C [6]: 97 % of control
- T/C [7]: 91 % of control
- T/C [8]: 91 % of control
- T/C [9]: 91 % of control
